# According to ChEMBL document CHEMBL1201862, “PubChem BioAssay data set” (2004):
#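 Test compounds were applied to cells in 96-well plates for 48 hours at 5 doses. GI50 is the concentration that inhibits growth by half.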 Active and inactive are the calls of the source. Cut-off read from the data, not from the text of the source: active = GI50 up to about 1.1 µM and inactive = higher.
# Assays:
# Assay in all cases: growth of human tumour cells (NCI), 48 h
# M14 = system: M14
# RXF 393 = system: RXF 393
# NCI-H522 = system: NCI-H522
# HT-29 = system: HT-29
# SK-OV-3 = system: SK-OV-3
# HCT-15 = system: HCT-15
# K562 = system: K562
# COLO 205 = system: COLO 205
# HL-60 = system: HL-60
# UACC-62 = system: UACC-62
# HOP-92 = system: HOP-92
# SF-295 = system: SF-295
# SW-620 = system: SW-620
# HCC 2998 = system: HCC 2998
# OVCAR-5 = system: OVCAR-5
# SNB-75 = system: SNB-75
# SNB-19 = system: SNB-19
# DMS-273 = system: DMS-273
# KM12 = system: KM12
# A498 = system: A498
# SNB-78 = system: SNB-78
# SN12C = system: SN12C
# DLD-1 = system: DLD-1
# OVCAR-4 = system: OVCAR-4
# U-251 = system: U-251
# UO-31 = system: UO-31
# SK-MEL-28 = system: SK-MEL-28
# NCI-H226 = system: NCI-H226
# UACC-257 = system: UACC-257
# LXFL 529 = system: LXFL 529
# IGROV-1 = system: IGROV-1
# CCRF-CEM = system: CCRF-CEM
# TK-10 = system: TK-10
# RPMI-8226 = system: RPMI-8226
# NCI-H23 = system: NCI-H23
# KM-20L2 = system: KM-20L2
# Malme-3M = system: Malme-3M
# CAKI-1 = system: CAKI-1
# OVCAR-3 = system: OVCAR-3
# 786-0 = system: 786-0
# SF-268 = system: SF-268
# RXF 631 = system: RXF 631
# ACHN = system: ACHN
# A549 = system: A549
# EKVX = system: EKVX
# HOP-62 = system: HOP-62
# SK-MEL-5 = system: SK-MEL-5
# M19-MEL = system: M19-MEL
# DMS-114 = system: DMS-114
# SF-539 = system: SF-539
# HCT-116 = system: HCT-116
# OVCAR-8 = system: OVCAR-8
# NCI-H460 = system: NCI-H460
# LOX IMVI = system: LOX IMVI
# MCF7 = system: MCF7
# MDA-MB-435 = system: MDA-MB-435
# SR = system: SR
# T47D = system: T47D
# HOP-18 = system: HOP-18
# Hs-578T = system: Hs-578T
# PC-3 = system: PC-3
# DU-145 = system: DU-145
# MDA-N = system: MDA-N
# BT-549 = system: BT-549
# MDA-MB-231 = system: MDA-MB-231
# SK-MEL-2 = system: SK-MEL-2
# MOLT-4 = system: MOLT-4
# NCI/ADR-RES = system: NCI/ADR-RES
# XF498 = system: XF498
structure (smiles),measurement,setting,value
CCOC(=O)C1N(S(=O)(=O)c2ccc(C)cc2)CCC12C(c1ccc(OC)cc1)NC1CCCCC12 (configuration not stated),GI50,M14,> 100 µM (inactive)
same,GI50,RXF 393,44.4 µM (inactive)
same,GI50,NCI-H522,> 100 µM (inactive)
same,GI50,HT-29,> 100 µM (inactive)
same,GI50,SK-OV-3,> 100 µM (inactive)
same,GI50,HCT-15,> 100 µM
same,GI50,K562,> 100 µM (inactive)
same,GI50,COLO 205,> 100 µM (inactive)
same,GI50,HL-60,> 100 µM (inactive)
same,GI50,UACC-62,> 100 µM (inactive)
same,GI50,HOP-92,22.9 µM (inactive)
same,GI50,SF-295,77.6 µM (inactive)
same,GI50,SW-620,> 100 µM (inactive)
same,GI50,HCC 2998,> 100 µM (inactive)
same,GI50,OVCAR-5,> 100 µM (inactive)
same,GI50,SNB-75,28.9 µM (inactive)
same,GI50,SNB-19,> 100 µM (inactive)
same,GI50,DMS-273,> 100 µM (inactive)
same,GI50,KM12,> 100 µM (inactive)
same,GI50,A498,> 100 µM (inactive)
same,GI50,SNB-78,> 100 µM (inactive)
same,GI50,SN12C,> 100 µM (inactive)
same,GI50,DLD-1,> 100 µM (inactive)
same,GI50,OVCAR-4,27.2 µM (inactive)
same,GI50,U-251,70.8 µM (inactive)
same,GI50,UO-31,> 100 µM (inactive)
same,GI50,SK-MEL-28,> 100 µM (inactive)
same,GI50,NCI-H226,> 100 µM (inactive)
same,GI50,UACC-257,> 100 µM (inactive)
same,GI50,LXFL 529,> 100 µM (inactive)
same,GI50,IGROV-1,> 100 µM (inactive)
same,GI50,CCRF-CEM,> 100 µM (inactive)
same,GI50,TK-10,> 100 µM (inactive)
same,GI50,RPMI-8226,> 100 µM (inactive)
same,GI50,NCI-H23,> 100 µM (inactive)
same,GI50,KM-20L2,> 100 µM (inactive)
same,GI50,Malme-3M,67.3 µM (inactive)
same,GI50,CAKI-1,> 100 µM (inactive)
same,GI50,OVCAR-3,> 100 µM (inactive)
same,GI50,786-0,68.7 µM (inactive)
same,GI50,SF-268,> 100 µM (inactive)
same,GI50,RXF 631,97.1 µM (inactive)
same,GI50,ACHN,> 100 µM (inactive)
same,GI50,A549,> 100 µM (inactive)
same,GI50,EKVX,> 100 µM (inactive)
same,GI50,HOP-62,98.6 µM (inactive)
same,GI50,SK-MEL-5,> 100 µM (inactive)
same,GI50,M19-MEL,> 100 µM (inactive)
same,GI50,DMS-114,> 100 µM (inactive)
same,GI50,SF-539,55.7 µM (inactive)
same,GI50,HCT-116,> 100 µM (inactive)
same,GI50,OVCAR-8,> 100 µM (inactive)
same,GI50,NCI-H460,> 100 µM (inactive)
same,GI50,LOX IMVI,> 100 µM (inactive)
CC(C)(C)c1nc2c(o1)/C(=N\c1ccc(F)cc1)c1ccccc1C2=O,GI50,M14,2.96 µM (inactive)
same,GI50,RXF 393,9.79 µM (inactive)
same,GI50,NCI-H522,5.36 µM (inactive)
same,GI50,MCF7,4.13 µM (inactive)
same,GI50,HT-29,17.6 µM (inactive)
same,GI50,MDA-MB-435,2.05 µM (inactive)
same,GI50,SK-OV-3,22.1 µM (inactive)
same,GI50,HCT-15,5.19 µM
same,GI50,K562,4.1 µM (inactive)
same,GI50,SR,> 43.5 µM (inactive)
same,GI50,COLO 205,15.7 µM (inactive)
same,GI50,HL-60,> 28.6 µM (inactive)
same,GI50,UACC-62,2.55 µM (inactive)
same,GI50,HOP-92,> 72.3 µM (inactive)
same,GI50,SF-295,6.1 µM (inactive)
same,GI50,SW-620,4.27 µM (inactive)
same,GI50,HCC 2998,9.12 µM (inactive)
same,GI50,OVCAR-5,14.6 µM (inactive)
same,GI50,SNB-75,6.79 µM (inactive)
same,GI50,T47D,> 49.3 µM (inactive)
same,GI50,HOP-18,15.2 µM (inactive)
same,GI50,SNB-19,8.24 µM (inactive)
same,GI50,DMS-273,1.73 µM (inactive)
same,GI50,KM12,7.78 µM (inactive)
same,GI50,A498,27.4 µM (inactive)
same,GI50,SNB-78,56 µM (inactive)
same,GI50,Hs-578T,6.68 µM (inactive)
same,GI50,SN12C,5.69 µM (inactive)
same,GI50,DLD-1,4.11 µM (inactive)
same,GI50,OVCAR-4,28.8 µM (inactive)
same,GI50,U-251,3.48 µM (inactive)
same,GI50,PC-3,5.41 µM (inactive)
same,GI50,UO-31,4.59 µM (inactive)
same,GI50,DU-145,10.4 µM (inactive)
same,GI50,SK-MEL-28,10.9 µM (inactive)
same,GI50,NCI-H226,16.9 µM (inactive)
same,GI50,MDA-N,2.37 µM (inactive)
same,GI50,UACC-257,2.36 µM (inactive)
same,GI50,BT-549,3.45 µM (inactive)
same,GI50,LXFL 529,4.4 µM (inactive)
same,GI50,IGROV-1,14.9 µM (inactive)
same,GI50,CCRF-CEM,> 100 µM (inactive)
same,GI50,TK-10,35.7 µM (inactive)
same,GI50,RPMI-8226,26.9 µM (inactive)
same,GI50,NCI-H23,2.26 µM (inactive)
same,GI50,KM-20L2,17.1 µM (inactive)
same,GI50,Malme-3M,1.97 µM (inactive)
same,GI50,CAKI-1,50.9 µM (inactive)
same,GI50,MDA-MB-231,30.2 µM (inactive)
same,GI50,OVCAR-3,1.06 µM (active)
same,GI50,786-0,27.2 µM (inactive)
same,GI50,SF-268,10.6 µM (inactive)
same,GI50,ACHN,4.85 µM (inactive)
same,GI50,A549,6.49 µM (inactive)
same,GI50,EKVX,23.7 µM (inactive)
same,GI50,HOP-62,15.9 µM (inactive)
same,GI50,SK-MEL-2,2.67 µM (inactive)
same,GI50,MOLT-4,> 100 µM (inactive)
same,GI50,NCI/ADR-RES,6.73 µM (inactive)
same,GI50,SK-MEL-5,1.7 µM (inactive)
same,GI50,M19-MEL,1.13 µM (inactive)
same,GI50,DMS-114,0.902 µM (active)
same,GI50,SF-539,4.6 µM (inactive)
same,GI50,HCT-116,5.12 µM (inactive)
same,GI50,OVCAR-8,7.21 µM (inactive)
same,GI50,NCI-H460,5.74 µM (inactive)
same,GI50,XF498,1.71 µM (inactive)
same,GI50,LOX IMVI,2.56 µM (inactive)
C/C(=N\NC(=N)N)C(CN1CCCCC1)C(c1ccccc1)c1c(O)c2ccccc2oc1=O (configuration not stated),GI50,M14,> 100 µM (inactive)
same,GI50,RXF 393,> 100 µM (inactive)
same,GI50,NCI-H522,43.6 µM (inactive)
same,GI50,HT-29,> 100 µM (inactive)
same,GI50,SK-OV-3,> 100 µM (inactive)
same,GI50,HCT-15,> 100 µM
same,GI50,K562,> 100 µM (inactive)
same,GI50,SR,> 100 µM (inactive)
same,GI50,COLO 205,> 100 µM (inactive)
same,GI50,HL-60,> 100 µM (inactive)
same,GI50,UACC-62,> 100 µM (inactive)
same,GI50,HOP-92,47.8 µM (inactive)
same,GI50,SF-295,> 100 µM (inactive)
same,GI50,SW-620,> 100 µM (inactive)
same,GI50,HCC 2998,> 100 µM (inactive)
same,GI50,OVCAR-5,> 100 µM (inactive)
same,GI50,SNB-75,> 100 µM (inactive)
same,GI50,SNB-19,> 100 µM (inactive)
same,GI50,A498,> 100 µM (inactive)
same,GI50,SN12C,> 100 µM (inactive)
same,GI50,DLD-1,> 100 µM (inactive)
same,GI50,OVCAR-4,> 100 µM (inactive)
same,GI50,SK-MEL-28,> 100 µM (inactive)
same,GI50,NCI-H226,> 100 µM (inactive)
same,GI50,UACC-257,> 100 µM (inactive)
same,GI50,LXFL 529,> 100 µM (inactive)
same,GI50,IGROV-1,> 100 µM (inactive)
same,GI50,CCRF-CEM,> 100 µM (inactive)
same,GI50,TK-10,> 100 µM (inactive)
same,GI50,RPMI-8226,> 100 µM (inactive)
same,GI50,NCI-H23,> 100 µM (inactive)
same,GI50,KM-20L2,> 100 µM (inactive)
same,GI50,Malme-3M,> 100 µM (inactive)
same,GI50,CAKI-1,> 100 µM (inactive)
same,GI50,OVCAR-3,> 100 µM (inactive)
same,GI50,786-0,> 100 µM (inactive)
same,GI50,SF-268,> 100 µM (inactive)
same,GI50,RXF 631,> 100 µM (inactive)
same,GI50,ACHN,> 100 µM (inactive)
same,GI50,A549,> 100 µM (inactive)
same,GI50,EKVX,> 100 µM (inactive)
same,GI50,HOP-62,> 100 µM (inactive)
same,GI50,SK-MEL-2,> 100 µM (inactive)
same,GI50,M19-MEL,> 100 µM (inactive)
same,GI50,DMS-114,> 100 µM (inactive)
same,GI50,SF-539,> 100 µM (inactive)
same,GI50,HCT-116,> 100 µM (inactive)
same,GI50,OVCAR-8,> 100 µM (inactive)
same,GI50,XF498,> 100 µM (inactive)
same,GI50,LOX IMVI,> 100 µM (inactive)
